Measured values taken from ChEMBL document CHEMBL3603736, “3-Substituted pyrazoles and 4-substituted triazoles as inhibitors of human 15-lipoxygenase-1” (Bioorg Med Chem Lett, 2015).
pIC50: −log10 of the molar value. ≈ marks a conversion by molar mass, not a printed value. Values belong to the molecule of their own block, whether it stands above or below them. Calls of active or inactive are those of the source. The calls are words filed in the database; no cut-off is given here.

Key:
[1] = target: Polyunsaturated fatty acid lipoxygenase ALOX12 (Homo sapiens) (UniProt P18054); assay: Inhibition of human platelet 12-LOX assessed as reduction in conversion of arachidonic acid to […] at 10 uM pre-incubated 5 min before arachidonic acid substrate addition by HPLC-UV spectroscopy
Polyunsaturated fatty acid lipoxygenase ALOX12 (Homo sapiens), sequence (P18054 whole entry): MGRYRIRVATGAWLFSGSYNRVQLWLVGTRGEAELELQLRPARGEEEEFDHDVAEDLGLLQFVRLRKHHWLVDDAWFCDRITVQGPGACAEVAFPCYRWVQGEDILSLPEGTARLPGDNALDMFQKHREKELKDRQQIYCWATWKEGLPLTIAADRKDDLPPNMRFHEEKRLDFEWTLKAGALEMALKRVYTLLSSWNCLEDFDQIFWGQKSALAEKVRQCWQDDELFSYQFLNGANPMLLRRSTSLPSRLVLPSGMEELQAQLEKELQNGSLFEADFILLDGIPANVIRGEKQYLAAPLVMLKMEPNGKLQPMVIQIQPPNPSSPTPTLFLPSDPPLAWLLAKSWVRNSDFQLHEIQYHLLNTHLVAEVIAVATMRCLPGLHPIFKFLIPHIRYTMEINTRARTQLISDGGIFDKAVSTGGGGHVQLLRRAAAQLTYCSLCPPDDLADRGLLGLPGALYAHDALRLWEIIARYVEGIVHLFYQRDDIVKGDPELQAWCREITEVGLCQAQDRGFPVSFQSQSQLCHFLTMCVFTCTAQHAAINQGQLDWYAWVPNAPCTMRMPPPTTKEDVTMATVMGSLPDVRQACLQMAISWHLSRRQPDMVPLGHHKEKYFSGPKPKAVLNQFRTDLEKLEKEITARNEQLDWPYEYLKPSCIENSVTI

[2] = Aqueous solubility in pH 7.4 buffer; format: physicochemical
[3] = target: Polyunsaturated fatty acid 5-lipoxygenase (Homo sapiens) (UniProt P09917); assay: Inhibition of 5-LOX in calcium ionophore and arachidonic acid-stimulated purified human granulocytes assessed as reduction in LTB4 formation at 10 uM by HPLC-UV spectroscopy
Polyunsaturated fatty acid 5-lipoxygenase (Homo sapiens), sequence (P09917 whole entry): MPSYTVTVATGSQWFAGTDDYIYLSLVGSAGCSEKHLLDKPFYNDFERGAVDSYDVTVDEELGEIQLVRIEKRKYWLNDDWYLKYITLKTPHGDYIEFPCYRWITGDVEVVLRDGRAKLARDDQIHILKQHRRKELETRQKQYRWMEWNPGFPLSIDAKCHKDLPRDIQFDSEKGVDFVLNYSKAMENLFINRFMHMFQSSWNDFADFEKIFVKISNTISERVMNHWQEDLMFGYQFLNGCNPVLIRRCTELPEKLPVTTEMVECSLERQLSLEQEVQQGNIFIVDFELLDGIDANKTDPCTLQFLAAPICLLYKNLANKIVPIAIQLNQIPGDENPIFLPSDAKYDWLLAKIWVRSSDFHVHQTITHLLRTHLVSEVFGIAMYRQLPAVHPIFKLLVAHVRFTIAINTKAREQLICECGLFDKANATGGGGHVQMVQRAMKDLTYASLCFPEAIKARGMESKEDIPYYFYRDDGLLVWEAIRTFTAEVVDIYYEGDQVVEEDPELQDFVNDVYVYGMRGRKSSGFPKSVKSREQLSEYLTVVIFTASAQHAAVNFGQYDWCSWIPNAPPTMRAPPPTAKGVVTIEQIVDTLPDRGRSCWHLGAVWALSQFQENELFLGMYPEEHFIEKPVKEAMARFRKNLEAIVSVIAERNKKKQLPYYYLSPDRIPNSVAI

[4] = Intrinsic clearance in human microsomes; format: ADME, Microsome
[5] = target: CYP2C9 (Homo sapiens, UniProt P11712); assay: (§1) Inhibition of human CYP2C9 at 10 uM; format: ADME
[6] = test system: Caco-2; assay: Permeability in human Caco2 cells; format: ADME, cell-based
[7] = target: T1, Prostaglandin G/H synthase 2 (Homo sapiens) (UniProt P35354); assay: Inhibition of human recombinant COX2 assessed as reduction in PGH2-derived PGF2alpha production at 10 uM by enzyme immunoassay
T1 sequence (whole entry): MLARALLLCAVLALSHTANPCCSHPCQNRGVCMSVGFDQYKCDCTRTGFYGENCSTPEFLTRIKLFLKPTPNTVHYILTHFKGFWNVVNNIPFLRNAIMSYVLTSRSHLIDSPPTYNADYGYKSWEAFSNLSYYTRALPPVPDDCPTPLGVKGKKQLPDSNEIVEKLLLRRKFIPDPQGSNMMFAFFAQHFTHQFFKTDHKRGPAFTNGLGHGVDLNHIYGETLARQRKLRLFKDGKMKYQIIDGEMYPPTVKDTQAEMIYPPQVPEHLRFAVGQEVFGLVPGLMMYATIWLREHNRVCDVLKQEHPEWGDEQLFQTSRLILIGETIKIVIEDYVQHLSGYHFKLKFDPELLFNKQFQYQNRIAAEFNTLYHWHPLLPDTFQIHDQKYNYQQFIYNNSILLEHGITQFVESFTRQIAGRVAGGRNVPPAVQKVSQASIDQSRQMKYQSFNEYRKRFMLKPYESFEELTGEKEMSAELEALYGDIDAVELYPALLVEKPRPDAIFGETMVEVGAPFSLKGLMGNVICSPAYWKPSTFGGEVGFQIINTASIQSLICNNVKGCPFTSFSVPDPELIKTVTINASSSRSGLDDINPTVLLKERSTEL

[8] = target: T2, Prostaglandin G/H synthase 1 (Ovis aries) (UniProt P05979); assay: Inhibition of ovine COX1 assessed as reduction in PGH2-derived PGF2alpha production at 10 uM by enzyme immunoassay
T2 sequence (whole entry): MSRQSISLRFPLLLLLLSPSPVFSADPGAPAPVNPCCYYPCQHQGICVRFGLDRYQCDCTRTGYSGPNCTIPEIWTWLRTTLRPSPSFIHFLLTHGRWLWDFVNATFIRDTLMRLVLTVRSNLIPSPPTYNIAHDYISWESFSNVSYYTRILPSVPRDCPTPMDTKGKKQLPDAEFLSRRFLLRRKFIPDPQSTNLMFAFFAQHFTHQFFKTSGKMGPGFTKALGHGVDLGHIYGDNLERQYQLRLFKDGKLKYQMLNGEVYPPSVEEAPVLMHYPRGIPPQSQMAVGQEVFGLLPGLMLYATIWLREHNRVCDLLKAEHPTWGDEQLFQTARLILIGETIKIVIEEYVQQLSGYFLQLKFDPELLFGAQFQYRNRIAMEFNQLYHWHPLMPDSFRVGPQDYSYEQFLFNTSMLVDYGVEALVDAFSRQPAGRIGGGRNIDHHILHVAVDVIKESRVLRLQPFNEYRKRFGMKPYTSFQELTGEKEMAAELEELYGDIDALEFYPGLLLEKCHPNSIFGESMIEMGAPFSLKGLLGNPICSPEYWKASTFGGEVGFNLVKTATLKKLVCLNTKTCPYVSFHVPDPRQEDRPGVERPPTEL

[9] = target: CYP2C19 (Homo sapiens, UniProt P33261); assay: (§2) Inhibition of human CYP2C19 at 10 uM; format: ADME
[10] = target: CYP2D6 (Homo sapiens, UniProt P10635); assay: Inhibition of human CYP2D6 at 10 uM; format: ADME
[11] = target: CYP1A2 (Homo sapiens, UniProt P05177); assay: (§3) Inhibition of human CYP1A2 at 10 uM; format: ADME
CYP1A2, sequence (P05177 whole entry): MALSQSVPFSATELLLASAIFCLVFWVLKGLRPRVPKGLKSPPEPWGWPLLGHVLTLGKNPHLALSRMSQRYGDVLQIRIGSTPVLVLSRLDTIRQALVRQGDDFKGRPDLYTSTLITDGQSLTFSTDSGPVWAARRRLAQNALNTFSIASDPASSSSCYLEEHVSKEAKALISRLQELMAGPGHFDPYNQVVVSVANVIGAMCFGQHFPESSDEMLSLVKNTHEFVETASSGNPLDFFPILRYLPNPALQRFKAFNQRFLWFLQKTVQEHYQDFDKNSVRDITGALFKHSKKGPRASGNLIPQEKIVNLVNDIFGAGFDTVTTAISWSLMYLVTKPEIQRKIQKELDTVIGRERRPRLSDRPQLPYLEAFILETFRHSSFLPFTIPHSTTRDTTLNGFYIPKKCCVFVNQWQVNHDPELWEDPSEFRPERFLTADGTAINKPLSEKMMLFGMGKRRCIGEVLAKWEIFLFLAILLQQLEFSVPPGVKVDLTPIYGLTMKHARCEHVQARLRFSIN

[12] = test system: Escherichia coli; assay: Genotoxicity in Escherichia coli by SOS/umu test; format: toxicity, organism-based
[13] = Protein binding in plasma (unknown origin); format: ADME, cell-free; settings: read-out: PPB (converted)
[14] = target: T3, Cytochrome P450 3A4 (Homo sapiens, UniProt P08684); assay: Inhibition of human CYP3A4 at 10 uM; format: ADME
T3 sequence (P08684 whole entry): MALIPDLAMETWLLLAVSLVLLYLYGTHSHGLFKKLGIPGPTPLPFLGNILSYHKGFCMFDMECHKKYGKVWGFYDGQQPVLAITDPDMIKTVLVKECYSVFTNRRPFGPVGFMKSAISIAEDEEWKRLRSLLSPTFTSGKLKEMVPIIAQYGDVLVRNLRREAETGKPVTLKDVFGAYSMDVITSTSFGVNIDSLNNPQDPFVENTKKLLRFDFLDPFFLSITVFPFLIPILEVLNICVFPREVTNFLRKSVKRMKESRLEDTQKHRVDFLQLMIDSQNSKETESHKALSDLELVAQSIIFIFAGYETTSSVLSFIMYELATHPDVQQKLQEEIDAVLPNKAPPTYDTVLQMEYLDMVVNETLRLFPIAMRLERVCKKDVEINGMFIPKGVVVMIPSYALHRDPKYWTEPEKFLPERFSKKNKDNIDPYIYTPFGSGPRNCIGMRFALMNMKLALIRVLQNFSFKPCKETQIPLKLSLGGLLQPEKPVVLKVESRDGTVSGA

[15] = target: Voltage-gated inwardly rectifying potassium channel KCNH2 (Homo sapiens, UniProt Q12809); assay: Inhibition of human ERG
Voltage-gated inwardly rectifying potassium channel KCNH2, sequence (Q12809 whole entry): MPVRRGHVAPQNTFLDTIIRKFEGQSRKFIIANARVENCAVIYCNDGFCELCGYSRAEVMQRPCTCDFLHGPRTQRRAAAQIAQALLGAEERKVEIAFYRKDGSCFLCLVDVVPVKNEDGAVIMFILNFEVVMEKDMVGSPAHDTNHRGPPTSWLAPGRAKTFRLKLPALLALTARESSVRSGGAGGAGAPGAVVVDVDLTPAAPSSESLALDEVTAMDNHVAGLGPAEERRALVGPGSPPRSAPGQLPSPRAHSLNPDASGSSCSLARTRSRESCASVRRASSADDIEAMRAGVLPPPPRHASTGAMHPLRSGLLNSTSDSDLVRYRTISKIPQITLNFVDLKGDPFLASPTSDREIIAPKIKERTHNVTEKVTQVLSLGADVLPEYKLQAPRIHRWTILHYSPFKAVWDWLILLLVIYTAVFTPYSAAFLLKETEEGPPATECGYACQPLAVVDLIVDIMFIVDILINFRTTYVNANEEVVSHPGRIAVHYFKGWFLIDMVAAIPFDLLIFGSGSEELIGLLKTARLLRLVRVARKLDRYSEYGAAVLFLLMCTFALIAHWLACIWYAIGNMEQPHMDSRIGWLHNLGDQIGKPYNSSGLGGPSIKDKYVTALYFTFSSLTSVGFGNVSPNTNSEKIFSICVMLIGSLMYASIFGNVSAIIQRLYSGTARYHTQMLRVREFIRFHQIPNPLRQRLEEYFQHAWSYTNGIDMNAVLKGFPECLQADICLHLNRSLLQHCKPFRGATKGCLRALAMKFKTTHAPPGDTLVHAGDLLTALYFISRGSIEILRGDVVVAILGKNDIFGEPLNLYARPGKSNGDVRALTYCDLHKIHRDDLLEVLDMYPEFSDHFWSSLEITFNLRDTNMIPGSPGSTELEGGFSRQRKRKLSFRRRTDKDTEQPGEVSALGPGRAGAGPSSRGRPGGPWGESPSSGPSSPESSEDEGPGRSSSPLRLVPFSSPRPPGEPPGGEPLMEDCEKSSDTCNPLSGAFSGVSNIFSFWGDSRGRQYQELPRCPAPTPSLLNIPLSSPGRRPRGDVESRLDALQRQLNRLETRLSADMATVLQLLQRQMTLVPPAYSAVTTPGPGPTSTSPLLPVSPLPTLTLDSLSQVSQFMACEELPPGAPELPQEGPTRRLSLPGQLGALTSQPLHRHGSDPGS

[16] = Half life in human microsomes; format: ADME, Microsome
[17] = target: T3, Cytochrome P450 3A4; assay: Inhibition of human CYP3A4; format: ADME
[18] = target: T4, Polyunsaturated fatty acid lipoxygenase ALOX15 (Homo sapiens, UniProt P16050); settings: l1236
T4 sequence (P16050 whole entry): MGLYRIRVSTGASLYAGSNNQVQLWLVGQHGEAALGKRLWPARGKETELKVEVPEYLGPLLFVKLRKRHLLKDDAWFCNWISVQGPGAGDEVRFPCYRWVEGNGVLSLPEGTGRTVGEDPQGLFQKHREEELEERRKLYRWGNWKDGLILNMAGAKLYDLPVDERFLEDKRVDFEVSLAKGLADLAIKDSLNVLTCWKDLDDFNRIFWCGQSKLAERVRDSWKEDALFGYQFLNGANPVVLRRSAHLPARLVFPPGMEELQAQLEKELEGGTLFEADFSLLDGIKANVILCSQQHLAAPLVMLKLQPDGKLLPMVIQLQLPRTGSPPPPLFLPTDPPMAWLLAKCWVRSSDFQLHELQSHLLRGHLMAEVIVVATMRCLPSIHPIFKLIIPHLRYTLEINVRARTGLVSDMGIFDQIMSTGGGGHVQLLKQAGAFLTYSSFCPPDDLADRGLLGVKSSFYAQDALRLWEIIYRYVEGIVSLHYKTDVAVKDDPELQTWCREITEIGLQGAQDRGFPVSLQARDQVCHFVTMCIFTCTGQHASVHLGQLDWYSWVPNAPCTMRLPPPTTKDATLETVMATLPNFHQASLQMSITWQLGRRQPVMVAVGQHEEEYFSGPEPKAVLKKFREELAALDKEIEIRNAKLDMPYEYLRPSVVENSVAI
Description: (§5) Inhibition of 15-LOX-1 in human L1236 cells assessed as reduction in conversion of arachidonic acid to 15-HETE pre-incubated 5 min before arachidonic acid substrate addition by HPLC-UV spectroscopy

[19] = target: T4, Polyunsaturated fatty acid lipoxygenase ALOX15; settings: sf9
Description: (§6) Inhibition of human 15-LOX-1 expressed in Sf9 cells assessed as reduction in conversion of arachidonic acid to 15-HETE pre-incubated 5 min before arachidonic acid substrate addition by HPLC-UV spectroscopy

[20] = target: T4, Polyunsaturated fatty acid lipoxygenase ALOX15
Description: as §5

[21] = target: Cytochrome P450 2D6 (Homo sapiens, UniProt P10635); assay: Inhibition of human CYP2D6; format: ADME
[22] = target: T5, Cytochrome P450 2C8 (Homo sapiens, UniProt P10632); assay: Inhibition of human CYP2C8 at 10 uM; format: ADME
T5 sequence (P10632 whole entry): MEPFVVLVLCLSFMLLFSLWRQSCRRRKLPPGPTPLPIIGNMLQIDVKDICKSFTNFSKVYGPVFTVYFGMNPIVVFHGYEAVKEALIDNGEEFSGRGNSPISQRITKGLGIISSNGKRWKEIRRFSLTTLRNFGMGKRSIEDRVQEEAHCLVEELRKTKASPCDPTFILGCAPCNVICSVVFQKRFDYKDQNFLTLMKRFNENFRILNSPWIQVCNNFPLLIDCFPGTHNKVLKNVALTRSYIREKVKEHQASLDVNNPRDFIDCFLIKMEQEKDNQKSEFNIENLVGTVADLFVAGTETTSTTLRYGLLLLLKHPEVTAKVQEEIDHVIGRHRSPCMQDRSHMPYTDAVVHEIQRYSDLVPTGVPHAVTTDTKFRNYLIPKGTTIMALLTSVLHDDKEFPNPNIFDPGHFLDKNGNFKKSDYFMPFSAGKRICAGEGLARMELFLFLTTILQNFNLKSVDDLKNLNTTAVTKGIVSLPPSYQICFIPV

[23] = Aqueous solubility in pH 10 buffer; format: physicochemical
[24] = target: T6, Cytochrome P450 1A2 (Homo sapiens, UniProt P05177); assay: Inhibition of human CYP1A2; format: ADME
T6 sequence (P05177 whole entry): as the sequence (P05177 whole entry) above

[25] = target: T7, Cytochrome P450 2C9 (Homo sapiens, UniProt P11712); assay: Inhibition of human CYP2C9; format: ADME
T7 sequence (P11712 whole entry): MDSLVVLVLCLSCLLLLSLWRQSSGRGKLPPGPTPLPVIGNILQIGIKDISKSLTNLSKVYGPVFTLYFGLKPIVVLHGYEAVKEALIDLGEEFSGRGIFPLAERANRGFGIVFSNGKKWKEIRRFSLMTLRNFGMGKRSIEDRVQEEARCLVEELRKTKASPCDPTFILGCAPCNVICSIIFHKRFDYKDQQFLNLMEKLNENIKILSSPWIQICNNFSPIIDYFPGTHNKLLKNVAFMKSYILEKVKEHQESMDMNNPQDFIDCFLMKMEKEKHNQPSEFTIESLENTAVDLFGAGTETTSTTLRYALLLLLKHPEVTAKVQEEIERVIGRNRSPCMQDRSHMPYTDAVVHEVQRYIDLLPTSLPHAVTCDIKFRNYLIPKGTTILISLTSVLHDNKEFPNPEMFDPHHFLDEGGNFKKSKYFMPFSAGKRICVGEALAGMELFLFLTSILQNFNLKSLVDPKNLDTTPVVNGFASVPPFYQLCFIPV

[26] = Inhibition of dog 15-LOX-1 expressed in Sf9 cells assessed as reduction in conversion of arachidonic acid to 15-HETE pre-incubated 5 min before arachidonic acid substrate addition by HPLC-UV spectroscopy; parameters: species or system Canis lupus familiaris
[27] = Aqueous solubility in pH 2.0 buffer; format: physicochemical
[28] = target: Arachidonate 12-lipoxygenase (Rattus norvegicus, UniProt Q02759); assay: (§4) Inhibition of rat 15-LOX-1 expressed in Sf9 cells assessed as reduction in conversion of arachidonic acid to 15-HETE pre-incubated 5 min before arachidonic acid substrate addition by HPLC-UV spectroscopy
[29] = target: Arachidonate 12-lipoxygenase (Rattus norvegicus) (UniProt Q02759); assay: as §4
[30] = target: T8, Cytochrome P450 2C19 (Homo sapiens, UniProt P33261); assay: Inhibition of human CYP2C19; format: ADME
T8 sequence (P33261 whole entry): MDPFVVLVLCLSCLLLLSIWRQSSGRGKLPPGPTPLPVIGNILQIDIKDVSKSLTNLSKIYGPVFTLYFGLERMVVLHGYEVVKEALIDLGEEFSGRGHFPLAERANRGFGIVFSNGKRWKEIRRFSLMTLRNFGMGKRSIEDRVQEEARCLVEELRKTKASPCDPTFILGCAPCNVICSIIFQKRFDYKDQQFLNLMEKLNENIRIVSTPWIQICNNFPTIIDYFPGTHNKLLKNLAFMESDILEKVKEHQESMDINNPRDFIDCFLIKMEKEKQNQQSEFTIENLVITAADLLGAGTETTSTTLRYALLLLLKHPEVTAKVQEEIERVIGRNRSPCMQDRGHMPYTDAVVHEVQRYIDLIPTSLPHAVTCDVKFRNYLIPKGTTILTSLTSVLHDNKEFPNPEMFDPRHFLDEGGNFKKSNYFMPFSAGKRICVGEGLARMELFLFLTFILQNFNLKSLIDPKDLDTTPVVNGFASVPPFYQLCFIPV

[31] = target: CYP2E1 (Homo sapiens, UniProt P05181); assay: Inhibition of human CYP2E1 at 10 uM; format: ADME
[32] = target: Polyunsaturated fatty acid lipoxygenase ALOX15B (Homo sapiens, UniProt O15296); assay: Inhibition of human 15-LOX-2 expressed in Sf9 cells assessed as reduction in conversion of arachidonic acid to 15-HETE pre-incubated 5 min before arachidonic acid substrate addition by HPLC-UV spectroscopy
[33] = target: CYP2B6 (Homo sapiens, UniProt P20813); assay: Inhibition of human CYP2B6 at 10 uM; format: ADME
[34] = target: Arachidonate 12-lipoxygenase (Sus scrofa, UniProt P16469); assay: Inhibition of pig 15-LOX-1 expressed in Sf9 cells assessed as reduction in conversion of arachidonic acid to 15-HETE pre-incubated 5 min before arachidonic acid substrate addition by HPLC-UV spectroscopy
[35] = target: T5, Cytochrome P450 2C8; assay: Inhibition of human CYP2C8; format: ADME
[36] = target: T4, Polyunsaturated fatty acid lipoxygenase ALOX15; remark: listed apart in the source
Description: as §6

[37] = target: T7, Cytochrome P450 2C9; assay: as §1; format: ADME; settings: 10 µM
[38] = target: T8, Cytochrome P450 2C19; assay: as §2; format: ADME; settings: 10 µM
[39] = target: T6, Cytochrome P450 1A2; assay: as §3; format: ADME; settings: 10 µM

Compound: O=C(Nc1cccnc1)c1ccn[nH]1
IC50 [18]: Not Active

Compound: O=C(Nc1ccc2ccccc2n1)c1cc[nH]n1
solubility [2]: 10.1 µg/mL (≈ 42.4 µM)
pIC50 [20]: 7.04
microsomal CLint [4]: 7 µL/min/mg
inhibition (INH) [37]: Not Active
solubility [23]: 10.1 µg/mL (≈ 42.4 µM)
permeability [6]: permeable
IC50 [25]: Not Active
inhibition [7]: inactive
inhibition [8]: 9%
inhibition (INH) [38]: Not Active
solubility [27]: 573 µg/mL (≈ 2410 µM)
inhibition (INH) [39]: 75%
Activity [12]: Non-toxic
IC50 [30]: Not Active
pIC50 [36]: 6.74
fraction unbound [13]: 0.072
inhibition (INH) [15]: Not Active
half-life [16]: > 100 min

Compound: O=C(Nc1ccncc1)c1cc[nH]n1
IC50 [18]: Not Active

Compound: O=C(Nc1cnc2ccccc2c1)c1cn[nH]n1
pIC50 [20]: 5.99

Compound: O=C(Nc1ccccn1)c1cc[nH]n1
pIC50 [20]: 5.47
pIC50 [36]: 5.92

Compound: CN(C(=O)c1cc[nH]n1)c1ccccc1Cl
IC50 [18]: Not Active
IC50 [19]: Not Active

Further lines, with some results ahead:

inhibition [1]: < 50%
solubility [2]: 3.4 µg/mL (≈ 16.5 µM)
inhibition [3]: < 50%
microsomal CLint [4]: 17 µL/min/mg
inhibition at 10 µM [5]: 26%
permeability [6]: permeable
inhibition [7]: inactive
inhibition [8]: inactive
inhibition at 10 µM [9]: 6%
inhibition at 10 µM [10]: 9%
inhibition at 10 µM [11]: 45%
fraction unbound [13]: 0.071
inhibition (INH) [14]: Not Active
half-life [16]: 36 min
IC50 [17]: Not Active
Compound: O=C(Nc1ccc(F)cn1)c1cc[nH]n1
Activity [12]: Non-toxic
inhibition (INH) [15]: Not Active

IC50 [19]: Not Active
pIC50 [20]: 5.48
Compound: O=C(Nc1ccc(F)cc1Cl)c1cc([N+](=O)[O-])[nH]n1

inhibition [1]: 42%
pIC50 [21]: < 4.00
solubility [2]: 83.6 µg/mL (≈ 325 µM)
inhibition [3]: < 50%
inhibition (INH) [22]: Not Active
microsomal CLint [4]: < 1 µL/min/mg
solubility [23]: > 287 µg/mL
pIC50 [24]: 4.67
permeability [6]: permeable
pIC50 ([25]; read-out: IC50): 6.30
inhibition [7]: 10%
inhibition [8]: 4%
pIC50 [26]: 5.62
solubility [27]: 24.3 µg/mL (≈ 94.5 µM)
pIC50 [28]: 4.62
Imax [29]: 79%
pIC50 ([30]; read-out: IC50): 5.85
inhibition at 10 µM [31]: 10%
fraction unbound [13]: < 0.01
IC50 [32]: Not Active
inhibition at 10 µM [33]: 93%
pIC50 [34]: 7.11
half-life [16]: > 100 min
IC50 [35]: Not Active
pIC50 ([17]; read-out: IC50): 4.24
Compound: O=C(Nc1ccc(Cl)cc1Cl)c1cn[nH]n1
Activity [12]: Non-toxic
inhibition (INH) [15]: Not Active

pIC50 [20]: 5.62
pIC50 [36]: 6.02
Compound: O=C(Nc1ccc(F)cc1)c1cn[nH]n1

pIC50 [20]: 6.21
pIC50 [36]: 5.23
Compound: O=C(Nc1ccc(F)cc1Cl)c1n[nH]cc1[N+](=O)[O-]
